Reference: patent US20150283212A1, “ORAL CALCITONIN COMPOSITIONS AND APPLICATIONS THEREOF” (Novartis AG, priority 2007, published 2015)

Test: Pharmacokinetics of orally administered salmon calcitonin combined with 5-CNAC
Format: in vivo
Source text: An oral form of calcitonin would improve patient acceptance and facilitate improved patient compliance by providing a more acceptable, alternative delivery route for peptide therapy. […] Salmon calcitonin appears rapidly in the plasma following oral administration, with median tmax at about 0.25 hr post-dose. Following tmax the plasma concentration fell rapidly. […] Plasma sCT concentrations increased as sCT doses increased. However, with high variability in available data, dose-proportional increase in AUC could not be confirmed.

effect of food on bioavailability of sCT (administered with food): markedly reduces
accumulation (AUC after multiple-dose vs single-dose) (oral): No significant accumulation
gastrointestinal (GI) absorption of the sCT (oral, combination with 5-CNAC, rodents, monkeys and humans): marked increase
Tmax (plasma, following oral administration, post-dose, read-out: median tmax): ~15 min
Compound: CC(C)C[C@H](NC(=O)[C@H](CCCCN)NC(=O)CNC(=O)[C@H](CC(C)C)NC(=O)[C@@H](NC(=O)[C@@H]1CSSC[C@H](N)C(=O)N[C@@H](CO)C(=O)N[C@@H](CC(N)=O)C(=O)N[C@@H](CC(C)C)C(=O)N[C@@H](CO)C(=O)N[C@@H]([C@@H](C)O)C(=O)N1)C(C)C)C(=O)N[C@@H](CO)C(=O)N[C@@H](CCC(N)=O)C(=O)N[C@@H](CCC(=O)O)C(=O)N[C@@H](CC(C)C)C(=O)N[C@@H](Cc1c[nH]cn1)C(=O)N[C@@H](CCCCN)C(=O)N[C@@H](CC(C)C)C(=O)N[C@@H](CCC(N)=O)C(=O)N[C@H](C(=O)N[C@@H](Cc1ccc(O)cc1)C(=O)N1CCC[C@H]1C(=O)N[C@@H](CCCNC(=N)N)C(=O)N[C@H](C(=O)N[C@@H](CC(N)=O)C(=O)N[C@H](C(=O)NCC(=O)N[C@@H](CO)C(=O)NCC(=O)N[C@H](C(=O)N1CCC[C@H]1C(N)=O)[C@@H](C)O)[C@@H](C)O)[C@@H](C)O)[C@@H](C)O [salmon calcitonin]
